Reference: paper PMC6538953, “Metal Ions Activate the Human Taste Receptor TAS2R7” (Chemical Senses, 2019)
Changes are numbered by the printed parent chain. Read-outs that look alike come from different tables or passages of the source.

Legend:
[1] = molecular target: T1, human TAS2R7 (Homo sapiens, UniProt Q9NYW3); test: Calcium mobilization assay, HEK293 cells transfected with TAS2R7 and Gα16-gust44; type: cell-based
T1 construct: first 45 residues of rat somatostatin receptor 3 (signal peptide) (N); expressed in transfected cells; host or cells: HEK293 (PEAKrapid, ATCC CRL-2828)
T1 sequence (Q9NYW3 1-318): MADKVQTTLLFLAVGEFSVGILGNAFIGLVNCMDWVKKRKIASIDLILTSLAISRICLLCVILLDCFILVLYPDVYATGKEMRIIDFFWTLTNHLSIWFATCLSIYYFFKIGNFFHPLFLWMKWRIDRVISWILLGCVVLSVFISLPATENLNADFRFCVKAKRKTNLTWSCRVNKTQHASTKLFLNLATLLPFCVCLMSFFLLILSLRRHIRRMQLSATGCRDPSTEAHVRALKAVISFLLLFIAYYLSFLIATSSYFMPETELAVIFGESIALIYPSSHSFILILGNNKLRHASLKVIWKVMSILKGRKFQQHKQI
Excerpt: (§1) The coding sequences of human TAS2Rs were amplified from human genomic DNA, then subcloned into pcDNA3.1(+) vector, with the herpes simplex virus glycoprotein D epitope (HSV) at the C-terminal and a signal peptide consisting of the first 45 amino acid residues of the rat somatostatin receptor 3 at the N-terminal, essentially as described previously ([Bufe et al. 2002]). Point mutations in human TAS2R7 (NCBI Reference Sequence: NP_076408.1) were constructed by site-directed mutagenesis. All the constructs were confirmed by Sanger sequencing.
All tested compounds were purchased from Sigma–Aldrich, with the exception of diphenidol hydrochloride (Reagent World) and L-praziquantel (manufactured by Shaoxing Pharmaceutical Co. Ltd.). All the metal ions were dissolved in the assay solution (130 mM NaCl, 5 mM KCl, 2 mM CaCl2, and 10 mM glucose; pH 7.4) unless specified otherwise, and the bitter compounds (diphenidol, quinine, and chlorphenamine) were dissolved first in dimethyl sulfoxide (DMSO) as stock solution and then diluted with the assay solution; the final DMSO concentration was below 0.5%, with the exception of cromolyn, which is dissolved in the assay solution directly. For our initial screening (Table 1), Hanks’ balanced salt solution (HBSS, ThermoFisher, catalog no. 14025134) supplemented with 10 mM hydroxyethyl piperazineethanesulfonic acid (HEPES) were used as the assay buffer.
Human embryonic kidney 293 (PEAKrapid, ATCC # CRL-2828) cells were cultured in Opti-MEM medium with 4% fetal bovine serum. One day before transfection, cells were seeded on a 96-well plate at a density of 25 000 per well. Cells were then transiently transfected with a TAS2R construct (0.1 µg/well) along with a G protein Gα16-gust44 (0.1 µg/well) construct by Lipofectamine 2000 (0.5 µl/well). For controls, only Gα16-gust44 was used (mock transfection). Twenty-four hours after transfection, cells were washed with HBSS including 10 mM HEPES and loaded with Fluo-4 in the dark for 1 h. After incubation, cells were washed 2 times with HBSS (including 10 mM HEPES), incubated in the dark for another 30 min, and then washed with assay solution once more before running the assay using a FlexStation III reader. Relative fluorescence units (excitation at 494 nm, emission at 516 nm, and auto cutoff at 515 nm) were read every 2 s for 2 min. Calcium mobilization traces were recorded.
Calcium mobilization traces were raw data obtained from single wells. Changes in fluorescence (ΔF) were calculated as the peak fluorescence minus baseline fluorescence ([Lei et al. 2015]). The calcium mobilization was quantified as the percentage of change (ΔF) relative to baseline (F). […] Calcium mobilization traces and bar graphs along with dose-dependent plots were all generated by GraphPad Prism 7. Analysis of variance with Dunnett’s multiple comparisons test was used for statistical analysis. *P < 0.05.
To determine whether a TAS2R responds to metal ions, we expressed all 25 human bitter receptors individually in HEK293 cells (PEAKrapid) by transient transfection of a TAS2R along with a coupling chimeric G protein, Gα16-gust44. All TAS2Rs were cloned from human genomic DNA. Activation of human TAS2Rs was monitored by the calcium mobilization assay ([Lei et al. 2015]). We tested these receptors individually for their responses toward metal ions: ZnSO4 (20 mM), CuSO4 (20 mM), and MgCl2 (20 mM) (Table 1, Figure 1A). […] To determine the breadth of tuning of TAS2R7 toward metal ions, we also tested MnCl2 (20 mM), Al2(SO4)3 ([…]), and CaCl2 (20 mM) (Figure 1B).

[2] = molecular target: T2, human TAS2R7 E264^7.32Q mutant (Homo sapiens, UniProt Q9NYW3, E264Q); test: Calcium mobilization assay, TAS2R7 mutant E264Q; type: cell-based; conditions: 20 mM metal ions except 0.16 mM Al2(SO4)3; cromolyn 10 mM; Figure 6C
T2 construct: signal peptide: first 45 amino acid residues of rat somatostatin receptor 3 (N); expressed in transfected cells; host or cells: HEK293 PEAKrapid (ATCC CRL-2828), transient, co-transfected with Gα16-gust44
T2 sequence (Q9NYW3 1-318 E264Q): T1 sequence (Q9NYW3 1-318) with E264Q
Excerpt: as §1
Human embryonic kidney 293 (PEAKrapid, ATCC # CRL-2828) cells were cultured in Opti-MEM medium with 4% fetal bovine serum. […] After incubation, cells were washed 2 times with HBSS (including 10 mM HEPES), incubated in the dark for another 30 min, and then washed with assay solution once more before running the assay using a FlexStation III reader. Relative fluorescence units (excitation at 494 nm, emission at 516 nm, and auto cutoff at 515 nm) were read every 2 s for 2 min. Calcium mobilization traces were recorded.
Calcium mobilization traces were raw data obtained from single wells. Changes in fluorescence (ΔF) were calculated as the peak fluorescence minus baseline fluorescence ([Lei et al. 2015]). The calcium mobilization was quantified as the percentage of change (ΔF) relative to baseline (F). […]

[3] = molecular target: T1, human TAS2R7; parameters: method as in Meyerhof et al. 2010; conditions: ref Meyerhof et al. 2010; cited from earlier work

Response of TAS2R7-transfected cells at higher dose ([1]; 10 mM): robust response
EC50 ([1]; Figure 4B, read-out: EC50, TAS2R7, dose-response analysis): 5.9 mM
EC50 ([1]; assay solution containing calcium, Figures 3A, 4C, read-out: EC50, TAS2R7, in the presence of calcium): 6.67 mM
EC50 ([1]; assay solution containing no calcium, Figures 3A, 4C, read-out: EC50, TAS2R7, in the absence of calcium): 5.22 mM
Maximal response of TAS2R7 in the absence versus presence of calcium ([1]; assay solution without calcium compared with calcium): smaller
Compounds triggering detectable responses in cells transfected with TAS2R7 ([1]; at the concentrations reported previously (Meyerhof et al. 2010), Figure 4A): none
Response of E264Q mutant receptor [2]: reduced responses
SMILES: O=C(O)c1cc(=O)c2c(OCC(O)COc3cccc4oc(C(=O)O)cc(=O)c34)cccc2o1 [cromolyn, reference compound]
TAS2R7 reported to respond to bitter compounds [3]: respond
